From PubChem BioAssay (NCI)
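Dose response: 5 concentrations. Exposure: 48 h. Format: 96-well plates. Endpoint: linear interpolation; highest concentration if not reached. TGI: total growth inhibition.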

Legend:
Experiment in all cases: NCI tumour cell line growth inhibition, 48 h
UACC-62 melanoma = system: UACC-62 melanoma
SN12C renal = system: SN12C renal
DMS 114 small cell lung = system: DMS 114 small cell lung
SK-MEL-2 melanoma = system: SK-MEL-2 melanoma
HCC-2998 colon = system: HCC-2998 colon
NCI-H226 lung = system: NCI-H226 lung
HL-60(TB) leukemia = system: HL-60(TB) leukemia
M14 melanoma = system: M14 melanoma
LOX IMVI melanoma = system: LOX IMVI melanoma
DMS 273 small cell lung = system: DMS 273 small cell lung
SW-620 colon = system: SW-620 colon
OVCAR-5 ovarian = system: OVCAR-5 ovarian
ACHN renal = system: ACHN renal
MALME-3M melanoma = system: MALME-3M melanoma
COLO 205 colon = system: COLO 205 colon
HCT-15 colon = system: HCT-15 colon
HOP-92 NSCLC = system: HOP-92 NSCLC
CAKI-1 renal = system: CAKI-1 renal
XF 498 CNS = system: XF 498 CNS
RPMI-8226 leukemia = system: RPMI-8226 leukemia
EKVX NSCLC = system: EKVX NSCLC
SF-268 CNS = system: SF-268 CNS
NCI-H522 lung = system: NCI-H522 lung
U251 CNS = system: U251 CNS
LXFL 529 NSCLC = system: LXFL 529 NSCLC
SNB-78 CNS = system: SNB-78 CNS
KM20L2 colon = system: KM20L2 colon
KM12 colon = system: KM12 colon
SK-MEL-5 melanoma = system: SK-MEL-5 melanoma
OVCAR-8 ovarian = system: OVCAR-8 ovarian
DLD-1 colon = system: DLD-1 colon
SNB-19 CNS = system: SNB-19 CNS
MOLT-4 leukemia = system: MOLT-4 leukemia
A549 NSCLC = system: A549 NSCLC
NCI-H460 lung = system: NCI-H460 lung
OVCAR-3 ovarian = system: OVCAR-3 ovarian
TK-10 renal = system: TK-10 renal
OVCAR-4 ovarian = system: OVCAR-4 ovarian
SNB-75 CNS = system: SNB-75 CNS
786-0 renal = system: 786-0 renal
K-562 leukemia = system: K-562 leukemia
SR leukemia = system: SR leukemia
UO-31 renal = system: UO-31 renal
SF-539 CNS = system: SF-539 CNS
UACC-257 melanoma = system: UACC-257 melanoma
SK-MEL-28 melanoma = system: SK-MEL-28 melanoma
CCRF-CEM leukemia = system: CCRF-CEM leukemia
A498 renal = system: A498 renal
HOP-62 NSCLC = system: HOP-62 NSCLC
NCI-H23 lung = system: NCI-H23 lung
M19-MEL melanoma = system: M19-MEL melanoma
HCT-116 colon = system: HCT-116 colon
SF-295 CNS = system: SF-295 CNS
IGROV1 ovarian = system: IGROV1 ovarian
RXF 393 renal = system: RXF 393 renal

With `CCN=C(NNc1ccc([N+](=O)[O-])cc1)P(=O)(OC(C)C)OC(C)C` the TGI (UACC-62 melanoma) was greater than 100000 nM, the TGI (SN12C renal) was greater than 100000 nM and the TGI (DMS 114 small cell lung) was greater than 100000 nM. For the same compound, the TGI (SK-MEL-2 melanoma) was greater than 100000 nM, the TGI (HCC-2998 colon) was greater than 100000 nM and the TGI (NCI-H226 lung) was greater than 100000 nM. It also gave a TGI (HL-60(TB) leukemia) greater than 100000 nM, a TGI (M14 melanoma) greater than 100000 nM and a TGI (LOX IMVI melanoma) greater than 100000 nM. The TGI (DMS 273 small cell lung) was greater than 100000 nM, the TGI (SW-620 colon) was greater than 100000 nM and the TGI (OVCAR-5 ovarian) was greater than 100000 nM. The TGI (ACHN renal) was greater than 100000 nM, the TGI (MALME-3M melanoma) was greater than 100000 nM and the TGI (COLO 205 colon) was greater than 100000 nM. It also gave a TGI (HCT-15 colon) greater than 100000 nM, a TGI (HOP-92 NSCLC) greater than 100000 nM and a TGI (CAKI-1 renal) greater than 100000 nM. It also gave a TGI (XF 498 CNS) greater than 100000 nM, a TGI (RPMI-8226 leukemia) greater than 100000 nM and a TGI (EKVX NSCLC) greater than 100000 nM. For the same compound, the TGI (SF-268 CNS) was greater than 100000 nM, the TGI (NCI-H522 lung) was greater than 100000 nM and the TGI (U251 CNS) was greater than 100000 nM. The TGI (LXFL 529 NSCLC) was greater than 100000 nM, the TGI (SNB-78 CNS) was greater than 100000 nM and the TGI (KM20L2 colon) was greater than 100000 nM. It also gave a TGI (KM12 colon) greater than 100000 nM, a TGI (SK-MEL-5 melanoma) greater than 100000 nM and a TGI (OVCAR-8 ovarian) greater than 100000 nM. It also gave a TGI (DLD-1 colon) greater than 100000 nM, a TGI (SNB-19 CNS) greater than 100000 nM and a TGI (MOLT-4 leukemia) greater than 100000 nM. The TGI (A549 NSCLC) was greater than 100000 nM, the TGI (NCI-H460 lung) was greater than 100000 nM and the TGI (OVCAR-3 ovarian) was greater than 100000 nM. The TGI (TK-10 renal) was greater than 100000 nM, the TGI (OVCAR-4 ovarian) was greater than 100000 nM and the TGI (SNB-75 CNS) was greater than 100000 nM. The TGI (786-0 renal) was greater than 100000 nM, the TGI (K-562 leukemia) was greater than 100000 nM and the TGI (SR leukemia) was greater than 100000 nM. It also gave a TGI (UO-31 renal) greater than 100000 nM, a TGI (SF-539 CNS) greater than 100000 nM and a TGI (UACC-257 melanoma) greater than 100000 nM. The TGI (SK-MEL-28 melanoma) was greater than 100000 nM, the TGI (CCRF-CEM leukemia) was greater than 100000 nM and the TGI (A498 renal) was greater than 100000 nM. It also gave a TGI (HOP-62 NSCLC) greater than 100000 nM, a TGI (NCI-H23 lung) greater than 100000 nM and a TGI (M19-MEL melanoma) greater than 100000 nM. For the same compound, the TGI (HCT-116 colon) was greater than 100000 nM.
`COc1ccc(C[C@H](N)C(=O)NC2C(CO)OC(n3cnc4c(N(C)C)ncnc43)C2O)cc1` (stereo not given in full) was tested, and the TGI (UACC-62 melanoma) was 411 nM, the TGI (DMS 114 small cell lung) was 604 nM and the TGI (SK-MEL-2 melanoma) was 3260 nM. The TGI (SF-295 CNS) was 1570 nM, the TGI (HCC-2998 colon) was 1010 nM and the TGI (NCI-H226 lung) was 446 nM. It also gave a TGI (HL-60(TB) leukemia) of 442 nM, a TGI (M14 melanoma) of 1770 nM and a TGI (LOX IMVI melanoma) of 288 nM. The TGI (IGROV1 ovarian) was 2660 nM, the TGI (DMS 273 small cell lung) was 1510 nM and the TGI (OVCAR-5 ovarian) was 42300 nM. It also gave a TGI (MALME-3M melanoma) of 2530 nM, a TGI (COLO 205 colon) of 302 nM and a TGI (HCT-15 colon) of 11900 nM. The TGI (HOP-92 NSCLC) was 591 nM, the TGI (XF 498 CNS) was 166 nM and the TGI (RPMI-8226 leukemia) was 1300 nM. For the same compound, the TGI (EKVX NSCLC) was 1060 nM, the TGI (SF-268 CNS) was 2610 nM and the TGI (U251 CNS) was 131 nM. It also gave a TGI (LXFL 529 NSCLC) of 305 nM, a TGI (SNB-78 CNS) of 758 nM and a TGI (KM12 colon) of 1320 nM. The TGI (SK-MEL-5 melanoma) was 847 nM, the TGI (OVCAR-8 ovarian) was 680 nM and the TGI (MOLT-4 leukemia) was 412 nM. The TGI (A549 NSCLC) was 2550 nM, the TGI (NCI-H460 lung) was 1150 nM and the TGI (OVCAR-4 ovarian) was 2100 nM. For the same compound, the TGI (SNB-75 CNS) was 744 nM, the TGI (K-562 leukemia) was 1160 nM and the TGI (SR leukemia) was 595 nM. The TGI (UO-31 renal) was 7890 nM, the TGI (UACC-257 melanoma) was 1670 nM and the TGI (SK-MEL-28 melanoma) was 481 nM. The TGI (CCRF-CEM leukemia) was 845 nM, the TGI (A498 renal) was 2480 nM and the TGI (HOP-62 NSCLC) was 2070 nM. It also gave a TGI (NCI-H23 lung) of 432 nM, a TGI (RXF 393 renal) of 730 nM and a TGI (M19-MEL melanoma) of 1540 nM. The TGI (HCT-116 colon) was 293 nM.
